Measured values as given in patent US20030224000A1, “Methods for blocking or alleviating staphylococcal nasal colonization by intranasal application of monoclonal antibodies” (priority 2001, published 2003).

Key:
[1] = tested on: S. aureus strain MBT 5040; assay: Minimal inhibitory concentration (MIC); format: cell-based; conditions: Staphylococcus aureus; S. aureus MBT 5040, clinical MRSA strain
[2] = tested on: streptomycin resistant S. aureus type 5 (SA5); assay: Mouse nasal colonization model, S. aureus preincubated with MAb before instillation; format: in vivo, mice
Experimental: Kiser et al. developed a staphylococcal nasal colonization model in mice to study staphylococcal factors that influence nasal colonization (30). […] Briefly, streptomycin resistant S. aureus type 5 was grown on high salt Columbia agar to promote capsule formation. The bacteria were washed with sterile saline to remove media components and resuspended at ˜10^8 organisms/animal dose in saline containing various concentrations and combinations of anti-staphylococcal or irrelevant control MAbs. Following a preincubation of 1 hr, the bacteria were repelleted and resuspended in a final volume of 10 μl per animal dose in either saline or saline containing antibody. Mice that have been maintained on streptomycin-containing water for 24 hrs were sedated with anesthesia. Staphylococci were instilled in the nares of the mice by pipetting without contact with the nose.
Generally, following four to seven days during which the animals were maintained on streptomycin-containing water, the animals were sacrificed and the noses removed surgically and dissected. Nasal tissue was vortexed vigorously in saline plus 0.5% Tween-20 to release adherent bacteria, and the saline was plated on Columbia blood agar and tryptic soy agar containing streptomycin to determine colonization.
According to this procedure, streptomycin-resistant S. aureus type 5 (SA5, 1 to 3×10^8/mouse) was preincubated for 1 hr in saline or saline containing A110 (2-3 mg purified IgG/mouse dose of 1-3×10^8 bacteria). Following preincubation, the bacteria were pelleted and resuspended in saline or in saline containing A110 (10 μl/mouse dose). Ten mice each were intranasally instilled with SA5 in saline or SA5 in A110. Table 4 tabulates three experiments showing that nasal application of A110 in PBS blocks and alleviates staphylococcal nasal colonization.

[3] = Table 5: 2 × 10^8 SA5 instilled with MAb, 2 mg/mouse dose

Molecule	MIC [1]	Effect on staphylococcal nasal colonization in mice ([2]; MAb in saline, Table 5 experiment)	Average number of colonies recovered per mouse [2, 3]	Number of mice colonized [2, 3]
COc1cccc(OC)c1C(=O)N[C@@H]1C(=O)N2[C@@H]1SC(C)(C)[C@@H]2C(=O)O [methicillin]	> 36 µg/mL	–	–	–
Medi 493: irrelevant control, chimeric IgG1 MAb against RSV (MedImmune)	–	no effect	137	9/9
